The target in experiment [1] is T1, human recombinant HDAC1 (Homo sapiens, UniProt Q13547).
T1 construct: purchased Enzo Life Science, Inc. BML-SE456
Put plainly: HDAC1 enzyme activity inhibition (HDAC Fluorimetric Drug Discovery Kit). The conditions noted are these: read-out: HDAC1. The class given is biochemical. The method, then:
(§1) An experiment was conducted to identify the selectivity of the compound represented by formula I of the present invention to HDAC6 through an experiment on HDAC1 and HDAC6 enzyme activity inhibition.
(§2) A 5-fold dilution of the compound was divided into a 96-well plate, after which […] of the enzyme and 10 μM of the substrate were inserted into each well and subjected to reaction at 30° C. for 60 minutes, such that Fluor de Lys® Developer II (BML-KI176) was inserted thereinto and subjected to reaction for 30 minutes and finished.

Experiment [2] concerns the target T2, human recombinant HDAC6 (Homo sapiens, UniProt Q9UBN7).
T2 construct: purchased Calbiochem Inc. 382180
T2 sequence (Q9UBN7 1-1215): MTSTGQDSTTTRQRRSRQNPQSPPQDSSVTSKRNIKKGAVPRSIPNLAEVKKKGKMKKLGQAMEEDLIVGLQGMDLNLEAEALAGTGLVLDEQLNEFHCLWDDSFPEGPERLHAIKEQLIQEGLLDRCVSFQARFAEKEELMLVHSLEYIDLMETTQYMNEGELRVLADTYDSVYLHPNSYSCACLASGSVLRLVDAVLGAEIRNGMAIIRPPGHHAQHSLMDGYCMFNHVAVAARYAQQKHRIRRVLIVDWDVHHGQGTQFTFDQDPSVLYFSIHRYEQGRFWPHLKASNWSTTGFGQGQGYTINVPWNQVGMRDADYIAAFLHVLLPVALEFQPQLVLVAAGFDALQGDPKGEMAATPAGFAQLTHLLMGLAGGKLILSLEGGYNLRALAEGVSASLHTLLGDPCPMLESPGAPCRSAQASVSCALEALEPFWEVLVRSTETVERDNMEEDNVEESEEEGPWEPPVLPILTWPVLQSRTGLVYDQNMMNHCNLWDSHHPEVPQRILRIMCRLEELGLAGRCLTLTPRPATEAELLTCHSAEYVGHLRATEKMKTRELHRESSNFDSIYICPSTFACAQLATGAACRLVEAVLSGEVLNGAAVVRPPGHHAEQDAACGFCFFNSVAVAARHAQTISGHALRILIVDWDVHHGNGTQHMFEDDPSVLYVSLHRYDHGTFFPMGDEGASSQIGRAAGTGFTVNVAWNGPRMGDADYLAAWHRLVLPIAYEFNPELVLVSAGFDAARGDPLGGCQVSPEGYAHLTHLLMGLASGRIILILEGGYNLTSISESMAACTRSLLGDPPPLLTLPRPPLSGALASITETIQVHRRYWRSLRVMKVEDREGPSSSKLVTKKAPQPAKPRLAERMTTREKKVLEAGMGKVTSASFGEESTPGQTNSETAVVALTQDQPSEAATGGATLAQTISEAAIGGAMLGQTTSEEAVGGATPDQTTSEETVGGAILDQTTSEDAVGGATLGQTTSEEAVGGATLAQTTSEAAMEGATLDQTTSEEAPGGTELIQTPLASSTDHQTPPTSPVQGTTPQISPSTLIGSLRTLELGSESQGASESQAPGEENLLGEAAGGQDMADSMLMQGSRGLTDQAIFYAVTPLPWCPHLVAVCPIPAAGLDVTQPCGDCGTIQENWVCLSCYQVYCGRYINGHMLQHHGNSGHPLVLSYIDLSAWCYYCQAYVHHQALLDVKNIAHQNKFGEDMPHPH
Description: HDAC6 enzyme activity inhibition (HDAC Fluorimetric Drug Discovery Kit). The experiment is classed as biochemical. On the procedure:
as §1, §2

[3] abbreviates: human recombinant HDAC1, Fluor de Lys substrate, 30° C. 60 minutes.
Where [4] appears, read: human recombinant HDAC6, same protocol as HDAC1.
The mark [5] stands for this setting: human recombinant HDAC1, IC50 calculated with GraphPad Prism.
Where [6] appears, read: human recombinant HDAC6, IC50 calculated with GraphPad Prism.

The structures appear in SMILES notation. Like-named read-outs stand apart in the source and are kept apart here.

T1 sequence (Q13547 whole entry): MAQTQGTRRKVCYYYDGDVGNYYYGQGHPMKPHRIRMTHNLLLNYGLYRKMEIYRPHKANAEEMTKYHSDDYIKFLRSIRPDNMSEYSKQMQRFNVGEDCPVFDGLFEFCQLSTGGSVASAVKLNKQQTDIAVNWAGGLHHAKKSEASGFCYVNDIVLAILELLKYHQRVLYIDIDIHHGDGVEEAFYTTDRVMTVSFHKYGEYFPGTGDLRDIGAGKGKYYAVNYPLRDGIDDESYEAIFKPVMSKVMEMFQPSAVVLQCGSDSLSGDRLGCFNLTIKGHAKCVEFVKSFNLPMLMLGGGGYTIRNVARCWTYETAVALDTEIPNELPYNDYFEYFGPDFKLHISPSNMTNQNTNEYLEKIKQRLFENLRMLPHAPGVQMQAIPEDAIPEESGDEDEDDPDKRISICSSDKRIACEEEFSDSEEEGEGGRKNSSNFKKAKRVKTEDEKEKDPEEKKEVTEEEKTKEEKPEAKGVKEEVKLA

For the compound `Fc1cc(-c2nnc(C(F)F)o2)ccc1Cn1cc(-c2ccc(CN3CC[C@@H](F)C3)s2)nn1` [Compound 17917], the IC50 in experiment [1] (setting [3]) was > 50 µM; in experiment [2] (setting [4]) it was 0.0567 µM. For the same compound, the “HDAC6 selectivity (fold)” value in experiment [2] (HDAC6 over HDAC1) was determined as 881 fold.

On to `CN(C)C(C)(C)C(=O)Nc1cccc(-c2cn(Cc3ccc(-c4nnc(C(F)F)o4)cc3)nn2)c1` [Compound 4351, N-(3-(1-(4-(5-(difluoromethyl)-1,3,4-oxadiazol-2-yl)benzyl)-1H-1,2,3-triazol-4-yl)phenyl)-2-(dimethylamino)-2-methylpropanamide], for which the IC50 is > 50 µM in experiment [1] (setting [5]) and 0.0419 µM in experiment [2] (setting [6]). In addition, the “HDAC6 selectivity (fold)” value in experiment [2] (HDAC1 IC50 / HDAC6 IC50) was 1193 fold.

Regarding `CC(C)N1CCN(Cc2ccc(-c3cn(Cc4ccc(-c5nnc(C(F)F)o5)cc4F)nn3)cc2)CC1` [Compound 4475, 2-(difluoromethyl)-5-(3-fluoro-4-((4-(4-((4-isopropylpiperazin-1-yl)methyl)phenyl)-1H-1,2,3-triazol-1-yl)methyl)phenyl)-1,3,4-oxadiazole], the results for the IC50 in experiment [1] (setting [5]) and in experiment [2] (setting [6]) were > 50 µM and 0.0394 µM, respectively. In addition, in experiment [2] (HDAC1 IC50 / HDAC6 IC50), the “HDAC6 selectivity (fold)” value is 1269 fold.

For `COc1cccc(-c2cn(Cc3ccc(-c4nnc(C(F)F)o4)cc3F)nn2)n1` [Compound 18736, 2-(difluoromethyl)-5-(3-fluoro-4-((4-(6-methoxypyridin-2-yl)-1H-1,2,3-triazol-1-yl)methyl)phenyl)-1,3,4-oxadiazole], the IC50 is > 50 µM in experiment [1] (setting [3]) and 0.0803 µM in experiment [2] (setting [4]). In experiment [2] (HDAC6 over HDAC1), the “HDAC6 selectivity (fold)” value is listed as 622 fold.

With `CCC(=O)N1CCN(c2cccc(-c3cn(Cc4ccc(-c5nnc(C(F)F)o5)cc4)nn3)c2)CC1` [Compound 4372, 1-(4-(3-(1-(4-(5-(difluoromethyl)-1,3,4-oxadiazol-2-yl)benzyl)-1H-1,2,3-triazol-4-yl)phenyl)piperazin-1-yl)propan-1-one], the IC50 in experiment [1] (setting [5]) was > 50 µM; in experiment [2] (setting [6]) it was 0.069 µM. In experiment [2] (HDAC1 IC50 / HDAC6 IC50), the “HDAC6 selectivity (fold)” value came out at 724 fold.

For `Fc1cc(-c2nnc(C(F)F)o2)ccc1Cn1cc(-c2cccc(N3C[C@@H]4C[C@H]3CN4)c2)nn1` [Compound 4316, 2-(4-((4-(3-((1S,4S)-2,5-diazabicyclo[2.2.1]heptan-2-yl)phenyl)-1H-1,2,3-triazol-1-yl)methyl)-3-fluorophenyl)-5-(difluoromethyl)-1,3,4-oxadiazole], the IC50 in experiment [1] (setting [5]) is > 50 µM; in experiment [2] (setting [6]) it was 0.242 µM. Further, in experiment [2] (HDAC1 IC50 / HDAC6 IC50), the “HDAC6 selectivity (fold)” value is reported as 206 fold.

As to `CC(C)(F)C(=O)Nc1cccc(-c2cn(Cc3ccc(-c4nnc(C(F)F)o4)cc3)nn2)c1` [Compound 4328, N-(3-(1-(4-(5-(difluoromethyl)-1,3,4-oxadiazol-2-yl)benzyl)-1H-1,2,3-triazol-4-yl)phenyl)-2-fluoro-2-methylpropanamide], the IC50 in experiment [1] (setting [5]) is > 50 µM; in experiment [2] (setting [6]), 0.0591 µM. In addition, the “HDAC6 selectivity (fold)” value in experiment [2] (HDAC1 IC50 / HDAC6 IC50) was found to be 846 fold.

Regarding `Fc1c(-c2cn(Cc3ccc(-c4nnc(C(F)F)o4)cn3)nn2)cccc1N1CCN(C2COC2)CC1` [Compound 4573, 2-(difluoromethyl)-5-(6-((4-(2-fluoro-3-(4-(oxetan-3-yl)piperazin-1-yl)phenyl)-1H-1,2,3-triazol-1-yl)methyl)pyridin-3-yl)-1,3,4-oxadiazole], the IC50 in experiment [1] (setting [3]) is > 50 µM; in experiment [2] (setting [4]), 0.0216 µM. For the same compound, in experiment [2] (HDAC6 over HDAC1), the “HDAC6 selectivity (fold)” value is listed as 2314 fold.

Consider `CC(C)N1Cc2ccc(-c3cn(Cc4ccc(-c5nnc(C(F)F)o5)cn4)nn3)cc2C1` [Compound 4541, 2-(difluoromethyl)-5-(6-((4-(2-isopropylisoindolin-5-yl)-1H-1,2,3-triazol-1-yl)methyl)pyridin-3-yl)-1,3,4-oxadiazole], for which the IC50 was > 50 µM in experiment [1] (setting [3]) and 0.034 µM in experiment [2] (setting [4]). Moreover, the “HDAC6 selectivity (fold)” value in experiment [2] (HDAC6 over HDAC1) stood at 1470 fold.

As for `Fc1cc(-c2nnc(C(F)F)o2)ccc1Cn1cc(-c2ccnc(N3CCN(C4COC4)CC3)c2)nn1` [Compound 4636], the results for the IC50 in experiment [1] (setting [3]) and in experiment [2] (setting [4]) were > 50 µM and 0.0319 µM, respectively. Further, the “HDAC6 selectivity (fold)” value in experiment [2] (HDAC6 over HDAC1) came out at 1567 fold.

`FC(F)c1nnc(-c2ccc(Cn3cc(-c4ccc(CNC5CCC5)cc4)nn3)nc2)o1` [Compound 4565, N-(4-(1-((5-(5-(difluoromethyl)-1,3,4-oxadiazol-2-yl)pyridin-2-yl)methyl)-1H-1,2,3-triazol-4-yl)benzyl)cyclobutanamine]: the IC50 in experiment [1] (setting [3]) was > 50 µM; in experiment [2] (setting [4]) it was 0.0083 µM. The “HDAC6 selectivity (fold)” value in experiment [2] (HDAC6 over HDAC1) turned out to be 6024 fold.

In the case of `FC(F)c1nnc(-c2ccc(Cn3cc(-c4ccc5[nH]ncc5c4)nn3)cc2)o1` [Compound 4344, 2-(4-((4-(1H-indazol-5-yl)-1H-1,2,3-triazol-1-yl)methyl)phenyl)-5-(difluoromethyl)-1,3,4-oxadiazole], in experiment [1] (setting [5]), the IC50 was > 50 µM.

Take `CN(C)Cc1ccc(-c2cn(Cc3ccc(-c4nnc(C(F)F)o4)cc3F)nn2)s1` [Compound 17914, 1-(5-(1-(4-(5-(difluoromethyl)-1,3,4-oxadiazol-2-yl)-2-fluorobenzyl)-1H-1,2,3-triazol-4-yl)thiophen-2-yl)-N,N-dimethylmethanamine]: the IC50 in experiment [1] (setting [3]) was > 50 µM.

Take `Fc1cc(-c2nnc(C(F)F)o2)ccc1Cn1cc(-c2ccn3ccnc3c2)nn1` [Compound 17198, 2-(difluoromethyl)-5-(3-fluoro-4-((4-(imidazo[1,2-a]pyridin-7-yl)-1H-1,2,3-triazol-1-yl)methyl)phenyl)-1,3,4-oxadiazole]: the IC50 in experiment [1] (setting [3]) was > 50 µM.

For the compound `CC(C)N1Cc2ccc(-c3cn(Cc4ccc(-c5nnc(C(F)F)o5)cc4F)nn3)cc2C1` [Compound 4517, 2-(difluoromethyl)-5-(3-fluoro-4-((4-(2-isopropylisoindolin-5-yl)-1H-1,2,3-triazol-1-yl)methyl)phenyl)-1,3,4-oxadiazole], the IC50 in experiment [1] (setting [3]) was > 50 µM.

Turning to `CCN1CCC(c2cccc(-c3cn(Cc4ccc(-c5nnc(C(F)F)o5)cn4)nn3)c2)CC1` [Compound 4011, 2-(difluoromethyl)-5-(6-((4-(3-(1-ethylpiperidin-4-yl)phenyl)-1H-1,2,3-triazol-1-yl)methyl)pyridin-3-yl)-1,3,4-oxadiazole], the IC50 in experiment [1] (setting [5]) was > 50 µM.

As for `CC(C)(F)C(=O)Nc1cccc(-c2cn(Cc3ccc(-c4nnc(C(F)F)o4)cc3F)nn2)c1` [Compound 4334], in experiment [1] (setting [5]), the IC50 is > 50 µM.

In the case of `FC(F)c1nnc(-c2ccc(Cn3cc(-c4cn[nH]c4)nn3)nc2)o1` [Compound 3985, 2-(6-((4-(1H-pyrazol-4-yl)-1H-1,2,3-triazol-1-yl)methyl)pyridin-3-yl)-5-(difluoromethyl)-1,3,4-oxadiazole], the IC50 in experiment [1] (setting [5]) is > 50 µM.

For `CN1CC(c2ccc(-c3cn(Cc4ccc(-c5nnc(C(F)F)o5)cc4F)nn3)cc2)C1` [Compound 17698], the IC50 in experiment [1] (setting [3]) was > 50 µM.

For the compound `Fc1ccc(-c2cn(Cc3ccc(-c4nnc(C(F)F)o4)cc3)nn2)cc1F` [Compound 3661, 2-(difluoromethyl)-5-(4-((4-(3,4-difluorophenyl)-1H-1,2,3-triazol-1-yl)methyl)phenyl)-1,3,4-oxadiazole], in experiment [1] (setting [5]), the IC50 was > 50 µM.

On to `CN(C)Cc1ccc(-c2cn(Cc3ccc(-c4nnc(C(F)F)o4)cc3F)nn2)cc1` [Compound 4522, 1-(4-(1-(4-(5-(difluoromethyl)-1,3,4-oxadiazol-2-yl)-2-fluorobenzyl)-1H-1,2,3-triazol-4-yl)phenyl)-N,N-dimethylmethanamine], for which the IC50 in experiment [1] (setting [3]) was > 50 µM.

Take `CN1CCN(c2cc(-c3cn(Cc4ccc(-c5nnc(C(F)F)o5)cc4F)nn3)ccn2)CC1` [Compound 4633, 2-(difluoromethyl)-5-(3-fluoro-4-((4-(2-(4-methylpiperazin-1-yl)pyridin-4-yl)-1H-1,2,3-triazol-1-yl)methyl)phenyl)-1,3,4-oxadiazole]: the IC50 in experiment [1] (setting [3]) is > 50 µM.

The values above are taken from patent US20230257372A1 (CHONG KUN DANG PHARMACEUTICAL CORP., priority 2020, published 2023).
